Consider six compounds from ChEMBL document CHEMBL1130947, “Tight-binding streptavidin ligands from a cyclic peptide library” (Bioorg Med Chem Lett, 1998).

pIC50: −log10 of the molar value. Positions of bridges follow the written chain, without caps; N, C: chain ends. Residues, ends and D or L forms follow the SMILES beside them. A value given as a limit tells only on which side of the number the result lay.

The nature of this test: The compound was tested for inhibition of streptavidin binding to the TentaGel-bound Ac-HPQFG peptide.

A word on the pIC50: it is the negative decadic logarithm of the IC50, by convention in mol/L. A low value points to a high IC50. Compound `CC[C@H](C)[C@H](NC(=O)[C@H]1CSSC[C@H](NC(=O)[C@H](CCC(=O)O)NC(=O)[C@H](C)N)C(=O)N[C@@H](Cc2c[nH]cn2)C(=O)N2CCC[C@H]2C(=O)N[C@@H](CCC(N)=O)C(=O)NCC(=O)N2CCC[C@H]2C(=O)N2CCC[C@H]2C(=O)N1)C(=O)N[C@@H](CCC(=O)O)C(=O)NCC(=O)N[C@@H](CCCN=C(N)N)C(=O)N[C@@H](CCCCN)C(N)=O` gave a pIC50 of 6.14.
`C[C@@H]1NC(=O)CNC(=O)[C@H](Cc2ccccc2)NC(=O)[C@H](CCC(N)=O)NC(=O)[C@@H]2CCCN2C(=O)[C@H](Cc2c[nH]cn2)NC(=O)[C@H](C)NC(=O)CC[C@@H](C(=O)N[C@@H](CCCCN)C(N)=O)NC1=O` (AHPQFGAEK-NH2; lactam N-8) had a pIC50 of 4.72.
Then `C[C@@H]1NC(=O)CC[C@@H](C(=O)N[C@@H](CCCCN)C(N)=O)NC(=O)[C@H](C)NC(=O)[C@@H]2CCCN2C(=O)[C@H](Cc2ccccc2)NC(=O)[C@H](CCC(N)=O)NC(=O)[C@@H]2CCCN2C(=O)[C@H](Cc2c[nH]cn2)NC1=O` (AHPQFPAEK-NH2; lactam N-8), with 6.89; and `C[C@@H]1NC(=O)CC[C@@H](C(=O)N[C@@H](CCCCN)C(N)=O)NC(=O)[C@H](C)NC(=O)[C@H](Cc2ccccc2)NC(=O)[C@H](Cc2c[nH]cn2)NC(=O)CNC(=O)[C@H](Cc2ccc(O)cc2)NC(=O)[C@H](CCC(N)=O)NC1=O` (AQYGHFAEK-NH2; lactam N-8), with under 2.30; and Ac-AHPQFGAEK-NH2, with 3.69.
The compound Ac-AHPQFPAEK-NH2 showed a pIC50 of 3.87. This pIC50 and that of the compound before are within 0.2 log units of each other.
